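GI50 = concentration required for 50% inhibition of growth. TGI marks complete inhibition of growth.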
Legend:
Test in all cases: NCI tumour cell line growth inhibition, 384-well format
[1] = test system: SF-268 CNS
[2] = test system: ACHN renal
[3] = test system: CCRF-CEM leukemia
[4] = test system: HOP-62 NSCLC
[5] = test system: U251 glioblastoma
[6] = test system: SN12C renal
[7] = test system: NCI-H460 NSCLC
[8] = test system: RPMI-8226 leukemia
[9] = test system: UACC-62 melanoma
[10] = test system: SK-OV-3 ovarian
[11] = test system: 786-0 renal
[12] = test system: M14 melanoma
[13] = test system: MDA-MB-231 breast
[14] = test system: SK-MEL-28 melanoma
[15] = test system: HL-60(TB) leukemia
[16] = test system: SNB-75 CNS
[17] = test system: NCI-H522 lung
[18] = test system: HS 578T breast
[19] = test system: COLO 205 colon
[20] = test system: HCT-15 colon
[21] = test system: NCI/ADR-RES ovarian
[22] = test system: LOX IMVI melanoma
[23] = test system: HOP-92 NSCLC
[24] = test system: K-562 leukemia
[25] = test system: KM12 colon
[26] = test system: RXF 393 renal
[27] = test system: A498 renal
[28] = test system: DU-145 prostate
[29] = test system: HCC-2998 colon
[30] = test system: MDA-MB-435 melanoma
[31] = test system: SK-MEL-5 melanoma
[32] = test system: NCI-H23 lung
[33] = test system: SF-295 CNS
[34] = test system: HT29 colon
[35] = test system: SR leukemia
[36] = test system: MCF7 breast
[37] = test system: NCI-H226 lung
[38] = test system: NCI-H322M lung
[39] = test system: SW-620 colon
[40] = test system: OVCAR-8 ovarian
[41] = test system: MDA-MB-468 breast
[42] = test system: MOLT-4 leukemia
[43] = test system: IGROV1 ovarian
[44] = test system: UACC-257 melanoma
[45] = test system: TK-10 renal
[46] = test system: T-47D breast
[47] = test system: OVCAR-5 ovarian
[48] = test system: OVCAR-4 ovarian
[49] = test system: SF-539 CNS
[50] = test system: A549 NSCLC
[51] = test system: BT-549 breast
[52] = test system: MALME-3M melanoma
[53] = test system: OVCAR-3 ovarian
[54] = test system: SNB-19 CNS
[55] = test system: EKVX NSCLC
[56] = test system: CAKI-1 renal
[57] = test system: UO-31 renal
[58] = test system: PC-3 prostate

NCC(=O)Nc1ccc(-n2nc(C(F)(F)F)cc2-c2ccc3c(ccc4ccccc43)c2)cc1
GI50 [1]: 1050 nM | TGI [1]: 2240 nM | GI50 [2]: 1180 nM | TGI [2]: 2430 nM | GI50 [3]: 218 nM | TGI [3]: 1720 nM | GI50 [4]: 1130 nM | TGI [4]: 2360 nM | GI50 [5]: 1190 nM | TGI [5]: 2460 nM | GI50 [6]: 1420 nM | TGI [6]: 2740 nM | GI50 [7]: 296 nM | TGI [7]: 1440 nM | GI50 [8]: 213 nM | TGI [8]: 686 nM | GI50 [9]: 1230 nM | TGI [9]: 2480 nM | GI50 [10]: 1570 nM | TGI [10]: 2920 nM | GI50 [11]: 1020 nM | TGI [11]: 2200 nM | GI50 [12]: 1270 nM | TGI [12]: 2540 nM | GI50 [13]: 405 nM | TGI [13]: 2010 nM | GI50 [14]: 1120 nM | TGI [14]: 2320 nM | GI50 [15]: 272 nM | TGI [15]: 1170 nM | GI50 [16]: 1080 nM | TGI [16]: 2290 nM | GI50 [17]: 1070 nM | TGI [17]: 2270 nM | GI50 [18]: 1760 nM | TGI [18]: 3160 nM | GI50 [19]: 535 nM | TGI [19]: 1800 nM | GI50 [20]: 82.1 nM | TGI [20]: 1750 nM | GI50 [21]: 1070 nM | TGI [21]: 2250 nM | GI50 [22]: 396 nM | TGI [22]: 1470 nM | GI50 [23]: 1120 nM | TGI [23]: 2330 nM | GI50 [24]: 218 nM | TGI [24]: 1520 nM | GI50 [25]: 1140 nM | TGI [25]: 2370 nM | GI50 [26]: 1270 nM | TGI [26]: 2530 nM | GI50 [27]: 1550 nM | TGI [27]: 2900 nM | GI50 [28]: 1310 nM | TGI [28]: 2610 nM | GI50 [29]: 1060 nM | TGI [29]: 2250 nM | GI50 [30]: 1110 nM | TGI [30]: 2330 nM | GI50 [31]: 1120 nM | TGI [31]: 2330 nM | GI50 [32]: 1760 nM | TGI [32]: 3150 nM | GI50 [33]: 766 nM | TGI [33]: 2040 nM | GI50 [34]: 1090 nM | TGI [34]: 2290 nM | GI50 [35]: 30.6 nM | TGI [35]: 104 nM | GI50 [36]: 904 nM | TGI [36]: 2120 nM | GI50 [37]: 1600 nM | TGI [37]: 2960 nM | GI50 [38]: 1420 nM | TGI [38]: 2740 nM | GI50 [39]: 965 nM | TGI [39]: 2160 nM | GI50 [40]: 1130 nM | TGI [40]: 2360 nM | GI50 [41]: 1530 nM | TGI [41]: 2870 nM | GI50 [42]: 44.1 nM | TGI [42]: 148 nM | GI50 [43]: 1090 nM | TGI [43]: 2300 nM | GI50 [44]: 1250 nM | TGI [44]: 2510 nM | GI50 [45]: 1320 nM | TGI [45]: 2610 nM | GI50 [46]: 1540 nM | TGI [46]: 2880 nM | GI50 [47]: 1660 nM | TGI [47]: 3040 nM | GI50 [48]: 1620 nM | TGI [48]: 2980 nM | GI50 [49]: 1160 nM | TGI [49]: 2400 nM | GI50 [50]: 1040 nM | TGI [50]: 2230 nM | GI50 [51]: 1330 nM | TGI [51]: 2620 nM | GI50 [52]: 1160 nM | TGI [52]: 2390 nM | GI50 [53]: 1570 nM | TGI [53]: 2920 nM | GI50 [54]: 1520 nM | TGI [54]: 2860 nM | GI50 [55]: 1770 nM | TGI [55]: 3170 nM | GI50 [56]: 1180 nM | TGI [56]: 2430 nM | GI50 [57]: 1390 nM | TGI [57]: 2740 nM | GI50 [58]: 1190 nM | TGI [58]: 2430 nM

Source: PubChem BioAssay (NCI)
